Test results from patent US5753516A, “Screening method for ligands of the EBI-1 receptor” (priority 1995, dated 1998).

Columns and labels:
Jurkat cells [1] = experiment: [Ca^2+ ]i response of Jurkat cells (Indo-1, flow cytometry); format: cell-based, human
Description: FIG. 14, Panel A and B. Methionine enkephalin and opiate receptor agonists selective for […] stimulate transmembrane signaling in Jurkat cells. Cells were labeled with Indo-1, washed twice in serum-free medium and held at 4° C. until analyzed. Indo-1 fluorescence was measured using flow cytometry as previously described (Heagy et al., 1992; Ledbetter et al., 1987; Chang et al., 1989; Rabinovitch et al., 1986). The fluorescence for nonstimulated cells (measured in medium, alone) was arbitrarily set at 1.0. Data are presented as per cent increase in the response [(r-baseline) x 100%]. Baseline [Ca^2+ ]i value measured for Jurkat cells (n=4) was 80±40 nM. Baseline Panel A, Jurkat cell response to MET-ENK (0.1 nM, 10 nM and 1 μM) and to the d- selective agonist Dermenkephalin (10 nM). Panel B, Jurkat cell response to the d- selective agonist (D-Pen ^2,5, p Cl-Phe^4)-ENK (0.1 nM. 10 nM. 1 μM).
The inventors (Heagy et al., 1992) have previously shown that when applied to NALM 6 cells the κ-1 agonist U69,953 stimulates a rapid increase in [Ca^2+ ]i. […] In order to determine whether the sites the inventors have identified using the δ-selective agonists also elicit Ca^2+ responses the inventors measured the effects of opioid peptides and δ-selective agonists on the calcium response. […] These studies provide evidence that Jurkat cells have functional δ opiate receptor sites which stimulate transmembrane signaling via rapid increases in [Ca^2+ ]i.

COS (Vector Control) = experiment: cAMP accumulation in COS cells (vector control); format: cell-based, monkey; conditions: COS (Vector Control); MET-ENK 0.01 nM, naloxone 10 μM, forskolin 0.1 μM; controls 40.2 and 38.8
EBI1 = target: T1, EBI1 (Homo sapiens, UniProt P32248)
T1 sequence (P32248 25-378): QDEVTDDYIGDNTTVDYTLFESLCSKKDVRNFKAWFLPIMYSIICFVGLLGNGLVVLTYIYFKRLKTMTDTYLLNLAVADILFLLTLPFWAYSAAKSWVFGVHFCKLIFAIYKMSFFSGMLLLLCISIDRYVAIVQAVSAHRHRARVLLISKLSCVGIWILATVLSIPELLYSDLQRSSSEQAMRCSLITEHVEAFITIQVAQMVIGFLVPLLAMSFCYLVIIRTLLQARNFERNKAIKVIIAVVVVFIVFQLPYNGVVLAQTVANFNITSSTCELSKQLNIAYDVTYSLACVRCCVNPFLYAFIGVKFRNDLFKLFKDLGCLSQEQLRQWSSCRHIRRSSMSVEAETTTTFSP

[2] = test system: lymphocytes and macrophages; conditions: animals; cited from earlier work
leukocytes = conditions: Lu et al., 1960; cited from earlier work
[3] = target: EBI1, novel lymphocyte R7G opioid binding protein (human); experiment: radioligand filtration assay on membranes of EBI1-transfected COS cells; nonspecific binding with 50 µM naloxone
NALM 6 cells = experiment: Migration (chemotaxis) of NALM 6 pre-B ALL cells; format: cell-based, human; conditions: for cell migration (cell counts): NALM 6, peptide 100 nM, spontaneous locomotion 2190; for concentration inducing migration: NALM 6 and LAZ 221; for effect on migration of pre-B ALL cells: NALM 6 and LAZ 221 cells
LAZ 221 cells = experiment: Migration (chemotaxis) of LAZ 221 pre-B ALL cells; format: cell-based, human; conditions: LAZ 221, peptide 100 nM; spontaneous locomotion 1886
LAZ 388 cells = experiment: Migration (chemotaxis) of LAZ 388 EBV-transformed B cells; format: cell-based, human; conditions: LAZ 388, peptide 100 nM; spontaneous locomotion 1938
human T cells [4] = conditions: Heagy et al., 1990; cited from earlier work
human T cells [5] = experiment: Migration of human peripheral blood T cells; format: cell-based
Jurkat cells [6] = test system: Jurkat cells
[7] = target: NALM 6 cells (pre-B acute lymphoblastic leukemia cell line), enkephalin/opiate binding sites not defined as a molecule; experiment: flow cytometry of MET-ENK-FITC on NALM 6 cells, two-site model, low affinity site
[8] = target: Jurkat cells (T cell leukemia cell line), enkephalin/opiate binding sites not defined as a molecule; experiment: flow cytometry of MET-ENK-FITC on Jurkat cells, two-site model, high affinity site
[9] = target: NALM 6 cells (pre-B acute lymphoblastic leukemia cell line), enkephalin/opiate binding sites not defined as a molecule; experiment: flow cytometry of MET-ENK-FITC on NALM 6 cells, two-site model, high affinity site
[10] = target: Jurkat cells (T cell leukemia cell line), enkephalin/opiate binding sites not defined as a molecule; experiment: flow cytometry of MET-ENK-FITC on Jurkat cells, two-site model, low affinity site

(D-Pen^2,5, p-Cl-Phe^4)-ENK
[Ca^2+ ]i response (Jurkat cells [1]): stimulated the Ca^2+ response
concentration eliciting [Ca^2+ ]i response (Jurkat cells [1]): 10^-8 to 10^-6 M

C=C[C@@]1(C)CC(=O)[C@]2(O)[C@@]3(C)[C@@H](O)CCC(C)(C)[C@@H]3[C@H](O)[C@H](OC(C)=O)[C@@]2(C)O1 [Forskolin]
cAMP (COS (Vector Control)): 130.5 fmoles/cell × 10^3
cAMP (EBI1): 234.8 fmoles/cell × 10^3

CN1CC[C@]23c4c5ccc(O)c4O[C@H]2[C@@H](O)C=C[C@H]3[C@H]1C5 [morphine]
lymphocyte trafficking in vivo [2]: enhance lymphocyte trafficking
leukocyte changes in rabbits (leukocytes): caused a leukocytosis in parallel with a depletion of lymphocyte blasts and other hematopoietic precursors in the bone marrow

DPDPE ([D-Pen2,5]enkephalin), delta-selective opiate receptor agonist (peptide)
Kd [3]: 0.2 nM

C[C@@H](NC(=O)[C@@H](N)Cc1ccc(O)cc1)C(=O)NCC(=O)N(C)[C@@H](Cc1ccccc1)C(=O)NCCO [DAMGO, [D-Ala^2, Me-Phe^4, Gly(ol)^5]-enkephalin]
cell migration (cell counts) (NALM 6 cells): 5070 cell counts
concentration inducing migration (NALM 6 cells): ≤ 10^-10 M
effect on migration of pre-B ALL cells (NALM 6 cells): enhanced, albeit modestly, the migration of NALM 6 and LAZ 221 cells
cell migration (cell counts) (LAZ 221 cells): 4602 cell counts
cell migration (cell counts) (LAZ 388 cells): 2043 cell counts
human T cell migration (human T cells [4]): potent stimulants for the migration of isolated human T cells

CSCC[C@H](NC=O)C(=O)N[C@@H](CC(C)C)C(=O)N[C@@H](Cc1ccccc1)C(=O)O [FMLP]
cell migration (cell counts) (NALM 6 cells): 3198 cell counts
effect on migration of pre-B ALL cells (NALM 6 cells): had no effect on the migration of the pre-B ALL cells
cell migration (cell counts) (LAZ 221 cells): 2906 cell counts
cell migration (cell counts) (LAZ 388 cells): 1914 cell counts

CC(C)C[C@H](NC(=O)[C@H](Cc1ccccc1)NC(=O)CNC(=O)CNC(=O)[C@@H](N)Cc1ccc(O)cc1)C(=O)O [LEU-ENK]
human lymphocyte / T cell migration (human T cells [5]): stimulate human lymphocyte migration
lowest concentration at which T cell migration was detectable (human T cells [5]; human peripheral blood T cells): 0.1 pM

CC(C)C[C@@H](NC(=O)[C@H](Cc1ccccc1)NC(=O)CNC(=O)[C@@H](C)NC(=O)[C@@H](N)Cc1ccc(O)cc1)C(=O)O [DADLE, [D-Ala^2,D-Leu5]-enkephalin]
cell migration (cell counts) (NALM 6 cells): 6240 cell counts
concentration inducing migration (NALM 6 cells): ≤ 10^-10 M
effect on migration of pre-B ALL cells (NALM 6 cells): enhanced, albeit modestly, the migration of NALM 6 and LAZ 221 cells
cell migration (cell counts) (LAZ 221 cells): 4405 cell counts
cell migration (cell counts) (LAZ 388 cells): 2283 cell counts
specific binding, % of total (Jurkat cells [6]): 50-60%
human T cell migration (human T cells [4]): potent stimulants for the migration of isolated human T cells

fluorescein derivative of methionine enkephalin (MET-ENK-FITC) (peptide)
Kd [7]: 318 nM
Kd [8]: 1.36 nM
Kd [9]: 1.01 nM
Kd [10]: 181 nM
